Results from patent US5006522A, “Condensed diazepinones, processes for preparing them and pharmaceutical compositions containing these compounds” (Karl Thomae GmbH, priority 1988, dated 1991).

What was measured:
[1] = system: acetylcholine effect on bronchi; experiment: Inhibition of the effect of acetylcholine on the bronchi in guinea pigs; type: in vivo; settings: Cavia porcellus, iv, 5 min; guinea pig, acetylcholine 10 microgram/kg i.v. and i.a., 5 min after substance; read-out: -log ED50, Bronchi (converted)
Protocol: (§1) 5 minutes after the administration of the test substance, 10 microgram/kg of acetylcholine were simultaneously injected intravenously and intraarterially into anaesthetised guinea pigs. The heart rate was recorded directly by extracorporeal derivation of the ECG, the expiration resistance according to Konzett-Robler and contraction of the exposed bladder. In order to determine the inhibition of the acetylcholine activity on the organs under investigation, dosage/activity curves were recorded and from them -log ED50 values were determined.

[2] = system: acetylcholine effect on bladder; experiment: Inhibition of the effect of acetylcholine on the bladder in guinea pigs; type: in vivo; settings: Cavia porcellus, iv, 5 min; guinea pig, acetylcholine 10 microgram/kg i.v. and i.a., 5 min after substance; read-out: -log ED50, Bladder (converted)
Protocol: as §1

[3] = target: T1, muscarinic receptors (heart) (Rattus norvegicus, UniProt P10980); experiment: Binding to muscarinic receptors, 3H-NMS displacement, heart; design: species or system rat (male Sprague-Dawley); settings: for IC50: 0.3 nM 3H-NMS, 30° C., 45 min, pH 7.4, read-out: IC50 receptor binding test, Heart (H); for potency compared with compound D: Table I, receptor binding, same selectivity maintained
T1 construct: The whole heart was cut up with scissors; All the organs were then homogenised in a Potter apparatus; from tissue; host or cells: homogenate of rat whole heart
T1 sequence (P10980 1-466): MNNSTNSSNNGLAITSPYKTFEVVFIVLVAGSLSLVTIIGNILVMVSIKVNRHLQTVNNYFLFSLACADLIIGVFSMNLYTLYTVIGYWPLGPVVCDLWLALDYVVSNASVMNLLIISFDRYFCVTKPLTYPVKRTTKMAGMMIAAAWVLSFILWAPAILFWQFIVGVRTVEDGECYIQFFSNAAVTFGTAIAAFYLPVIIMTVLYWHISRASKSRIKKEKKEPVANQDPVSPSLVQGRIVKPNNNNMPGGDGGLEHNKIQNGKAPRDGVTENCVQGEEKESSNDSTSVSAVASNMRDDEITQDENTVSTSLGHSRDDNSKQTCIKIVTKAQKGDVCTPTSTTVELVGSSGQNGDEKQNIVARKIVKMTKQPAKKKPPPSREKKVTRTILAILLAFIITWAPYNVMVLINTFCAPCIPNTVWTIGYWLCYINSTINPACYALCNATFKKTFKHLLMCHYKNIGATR
Protocol: (§2) The organs were donated by male Sprague-Dawley rats weighing 180-220 g After the heart and submandibular gland and cerebral cortex had been removed, all other steps were carried out in ice-cold Hepes HCl buffer (pH 7.4; 100 millimolar NaCl, 10 millimolar MgCl2). The whole heart was cut up with scissors. All the organs were then homogenised in a Potter apparatus.
(§3) For the binding test the homogenised organs were diluted as follows:
(§4) The homogenised organs were incubated at a given concentration of the radioligand and at a series of concentrations of the non-radioactive test substances in an Eppendorf centrifuge tube at 30° C. Incubation lasted 45 minutes. The radioligand used was 0.3 nanomolar ^3 H-N-methylscopolamine (^3 H-NMS). Incubation was ended by the addition of ice-cold buffer followed by vacuum filtration. The filters were rinsed with cold buffer and their radioactivity was determined. This represents the sum of specific and non-specific binding of ^3 H-NMS. The proportion of non-specific binding was defined as the radioactivity which was bound in the presence of 1 micromolar quinuclidinylbenzylate. Each measurement was taken four times. The IC50 values of the non-labelledtest substances were determined graphically. They represent that concentration of test substance at which the specific binding of ^3 H-NMS to the muscarinic receptors in the various organs was inhibited by 50%.

[4] = system: acetylcholine effect on heart rate; experiment: Inhibition of the effect of acetylcholine on heart rate in guinea pigs; type: in vivo; settings: Cavia porcellus, iv, 5 min; guinea pig, acetylcholine 10 microgram/kg i.v. and i.a., 5 min after substance; read-out: -log ED50, Heart (heart rate) (converted)
Protocol: as §1

[5] = target: T2, muscarinic receptors (submandibular gland) (Rattus norvegicus, UniProt P08483); experiment: Binding to muscarinic receptors, 3H-NMS displacement, submandibular gland; design: species or system rat (male Sprague-Dawley); settings: for IC50: 0.3 nM 3H-NMS, 30° C., 45 min, pH 7.4, read-out: IC50 receptor binding test, Submandibular gland (SM); for Selectivity factor [drawing 24]: head is a drawing, values equal IC50 SM / IC50 H
T2 construct: After the heart and submandibular gland and cerebral cortex had been removed; from tissue; host or cells: homogenate of rat submandibular gland
T2 sequence (P08483 whole entry): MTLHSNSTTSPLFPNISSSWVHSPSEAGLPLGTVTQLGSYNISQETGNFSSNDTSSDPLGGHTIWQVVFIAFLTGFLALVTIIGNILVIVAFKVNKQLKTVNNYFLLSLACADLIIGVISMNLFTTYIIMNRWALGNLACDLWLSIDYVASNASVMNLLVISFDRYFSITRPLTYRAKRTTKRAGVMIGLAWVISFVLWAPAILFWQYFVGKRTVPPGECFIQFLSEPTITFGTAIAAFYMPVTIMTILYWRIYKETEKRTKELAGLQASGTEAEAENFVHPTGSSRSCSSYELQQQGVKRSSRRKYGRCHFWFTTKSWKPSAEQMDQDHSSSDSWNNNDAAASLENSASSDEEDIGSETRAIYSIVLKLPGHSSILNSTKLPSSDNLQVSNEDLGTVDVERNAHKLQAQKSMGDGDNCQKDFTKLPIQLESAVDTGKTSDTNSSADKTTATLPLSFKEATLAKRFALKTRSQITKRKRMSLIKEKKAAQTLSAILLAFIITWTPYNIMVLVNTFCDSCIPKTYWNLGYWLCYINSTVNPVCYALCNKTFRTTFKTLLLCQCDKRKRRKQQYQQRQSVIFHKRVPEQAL
Protocol: as §2, §3, §4

[6] = target: T3, M1 (Rattus norvegicus, UniProt P08482); experiment: M1/M2 selectivity in the rat: reduction of McN-A-343 induced rise in blood pressure (M1); type: in vivo, rat (male THOM); settings: iv, 5 min, i.v., 5 min before 0.3 mg/kg McN-A-343 i.v., read-out: -log ED50, Blood pressure (M1) (converted)
T3 construct: from tissue; host or cells: living rat (in vivo; sympathetic ganglia by own knowledge)
T3 sequence (P08482 1-460): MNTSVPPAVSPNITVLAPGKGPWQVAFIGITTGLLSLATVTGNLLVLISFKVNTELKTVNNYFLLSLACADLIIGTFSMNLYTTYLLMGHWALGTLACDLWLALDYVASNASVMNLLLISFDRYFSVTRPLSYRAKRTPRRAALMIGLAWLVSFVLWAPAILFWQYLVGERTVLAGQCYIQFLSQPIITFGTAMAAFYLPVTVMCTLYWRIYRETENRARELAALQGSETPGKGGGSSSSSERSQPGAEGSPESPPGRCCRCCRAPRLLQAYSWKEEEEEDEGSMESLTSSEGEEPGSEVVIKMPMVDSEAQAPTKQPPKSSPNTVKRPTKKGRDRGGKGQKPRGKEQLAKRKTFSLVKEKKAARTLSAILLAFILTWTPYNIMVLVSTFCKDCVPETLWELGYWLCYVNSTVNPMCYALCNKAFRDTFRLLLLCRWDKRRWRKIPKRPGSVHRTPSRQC
Protocol: The dosage of the substances which reduced either the vagal bradycardia (M2) or the rise in blood pressure (M1) by 50% was determined graphically. For the results see Table II.

[7] = target: muscarinic receptors (cerebral cortex); experiment: Binding to muscarinic receptors, 3H-NMS displacement, cerebral cortex; design: species or system rat (male Sprague-Dawley); settings: for IC50: 0.3 nM 3H-NMS, 30° C., 45 min, pH 7.4, read-out: IC50 receptor binding test, Cortex (C); for Selectivity factor [drawing 25]: head is a drawing, values equal IC50 C / IC50 H
Protocol: as §2, §3, §4

[8] = system: secretion of saliva; experiment: Salivation-inhibiting effect in the rat (pilocarpine); type: in vivo, rat (male THOM); settings: iv, urethane anaesthesia, pilocarpine 2 mg/kg s.c., read-out: -log ED50, Salivation inhibition (converted)
Protocol: The secretion of saliva was initiated by subcutaneous administration of 2 mg/kg of pilocarpine. The saliva was absorbed with blotting paper and the surface area covered was measured every 5 minutes by planimetry. The dosage of the substance which reduced the volume of saliva by 50% was determined graphically. For the results see Table II.

[9] = target: T4, M2 (Rattus norvegicus, UniProt P10980); experiment: M1/M2 selectivity in the rat: reduction of vagal bradycardia (M2); type: in vivo, rat (male THOM); settings: iv, 5 min, i.v., 5 min before right vagus stimulation, read-out: -log ED50, Heart (vagal bradycardia, M2) (converted)
T4 construct: from tissue; host or cells: heart of the living rat (in vivo)
T4 sequence (P10980 1-466): T1 sequence (P10980 1-466)
Protocol: The method used was described by Hammer and Giachetti (Life Sciences 31, 2991-2998 (1982)). 5 minutes after the intravenous injection of increasing doses of the substance, either the right vagus was electrically stimulated (frequency: 25 Hz; pulse width: 2 ms; duration of stimulus: 30s; voltage: supramaximal) or 0.3 mg/kg of McN-A-343 were intravenously injected into male THOM rats. The bradycardia caused by vagus stimulation and the rise in blood pressure caused by McN-A-343 were determined. The dosage of the substances which reduced either the vagal bradycardia (M2) or the rise in blood pressure (M1) by 50% was determined graphically. For the results see Table II.

[10] = target: T5, histamine-H1 receptor (Rattus norvegicus, UniProt P31390); experiment: Binding to the histamine-H1 receptor (3H-pyrilamine); settings: 2 nM 3H-pyrilamine, ambient temperature, 60 min, whole rat brain without cerebellum
T5 construct: whole rat brains were used without the cerebellum; from tissue; host or cells: membranes of whole rat brain without cerebellum
T5 sequence (P31390 whole entry): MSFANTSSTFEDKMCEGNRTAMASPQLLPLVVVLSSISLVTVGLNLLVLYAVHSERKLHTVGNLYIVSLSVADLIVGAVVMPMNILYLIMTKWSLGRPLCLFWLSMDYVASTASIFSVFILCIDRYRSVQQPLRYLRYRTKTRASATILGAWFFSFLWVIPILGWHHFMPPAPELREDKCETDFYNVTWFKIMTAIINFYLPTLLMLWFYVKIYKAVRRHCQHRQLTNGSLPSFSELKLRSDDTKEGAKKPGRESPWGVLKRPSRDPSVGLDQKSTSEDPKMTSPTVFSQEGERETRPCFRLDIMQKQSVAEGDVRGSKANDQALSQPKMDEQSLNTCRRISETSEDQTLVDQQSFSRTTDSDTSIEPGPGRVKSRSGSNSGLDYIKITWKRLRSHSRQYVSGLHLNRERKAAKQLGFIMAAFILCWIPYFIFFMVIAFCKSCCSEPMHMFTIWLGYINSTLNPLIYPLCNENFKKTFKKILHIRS
Protocol: In these tests, whole rat brains were used without the cerebellum. The tissue was homogenised in a phosphate buffer pH 7.5 according to Sorensen using the Ultra-Turrax. The homogenised material was then washed twice and centrifuged at 50,000×g. The pellet was taken up in a dilution, based on the starting tissue, of 1:100. […] The reactions were also ended by vacuum filtration and the radioactivity of the filters was measured. The non-specific binding was determined using mixtures which contained 10 micromolar triprolidine. The results were evaluated as in the studies of binding to the imipramine receptor.

[11] = Water solubility of the monohydrochloride; type: physicochemical

SMILES | ED50 [1] [µmol/kg] | ED50 [2] [µmol/kg] | IC50 [3] [nM] | potency compared with compound D [3] | ED50 [4] [µmol/kg] | IC50 [5] [nM] | Selectivity factor [drawing 24] [5] | ED50 [6] [µmol/kg] | IC50 [7] [nM] | Selectivity factor [drawing 25] [7] | ED50 [8] [µmol/kg] | ED50 [9] [µmol/kg] | IC50 [10] [nM] | water solubility (monohydrochloride) [11]
O=C1Nc2cccnc2N(CCCCCCN2CCCCC2)c2ccccc21 [A, 5,11-dihydro-11-[6-(1-piperidinyl)hexyl]-6H-pyrido[2,3-b][1,4]benzodiazepin-6-one] | 0.0851 | 1.29 | 0.6 | considerably higher potency | 0.0661 | 10 | 16.7 | 0.295 | 4 | 6.7 | 0.447 | 0.011 |  | 
CCN(CC)CC1CCCCN1CCCCN1c2ccccc2C(=O)Nc2cccnc21 (stereo not shown) [B, 11-[4-[2-[(diethylamino)methyl]-1-piperidinyl]butyl]-5,11-dihydro-6H-pyrido[2,3-b][1,4]benzodiazepin-6-one] | 0.646 | > 10 | 2 | considerably higher potency | 0.468 | 80 | 40 | 0.676 | 20 | 10 | 3.16 | 0.0398 | 9000 | 
CCN(CC)CC1CCCCN1CC#CCN1c2ccccc2C(=O)Nc2cccnc21 (stereo not shown) [C, 11-[4-[2-[(diethylamino)methyl]-1-piperidinyl]but-2-ynyl]-5,11-dihydro-6H-pyrido[2,3-b][1,4]benzodiazepin-6-one] | 1.58 | > 2.29 | 18 | considerably higher potency | 0.245 | 700 | 38.9 | 1.1 | 200 | 11.1 | 7.59 | 0.0302 |  | 
CCN(CC)CC1CCCCN1CC(=O)N1c2ccccc2C(=O)Nc2cccnc21 (stereo not shown) [D, 11-[[2-[(diethylamino)methyl]-1-piperidinyl]acetyl]-5,11-dihydro-6H-pyrido[2,3-b][1,4]benzodiazepin-6-one, reference compound] |  |  |  |  |  |  |  |  |  |  | 10 |  |  | 
Cl.O=C1Nc2ccccc2N(CCCCCCN2CCCCCC2)c2ccccc21 [Example 16, 5,10-Dihydro-5-[6-(hexahydro-1H-1-azepinyl)hexyl]-11H-dibenzo[b,e][1,4]diazepin-11-one hydrochloride] |  |  |  |  |  |  |  |  |  |  |  |  |  | sparingly soluble in water
CN1[C@@H]2CC[C@H]1C[C@@H](OC(=O)C(CO)c1ccccc1)C2 (stereo partly shown) [F, atropine, reference compound] |  |  |  |  | 0.02 |  |  |  |  |  |  |  |  | 
